Data on eight molecules can be found in publication PMC8585690 (Toxicology, 2021).

The test system of data set [1] is primary human hepatocytes or human iPSC-derived hepatocytes. Particulars: for underprediction of clearance by LAMPS compared to in vivo: Day 1 (24 hr) clearance vs in vivo intrinsic clearance.
A further data set has as its system plasma protein. Conditions: cited from earlier work; for plasma free fraction, previously reported measurement: ref Sakolish et al. 2021; for Fub, plasma: representative range of literature-reported values, ref see Methods.
The conditions of data set [2]: cited from earlier work; for estimated clearance: ref Kadam et al. 2013.
The subject of another data set is Hepatocyte. Particulars: metabolizing enzymes and conjugation pathways; cited from earlier work.
Data set [3] is described as follows: Literature-based in vivo clinical clearance, AUC and bioavailability. Conditions: for mean oral clearance of available literature values: mean across studies, no further adjustment; for bioavailability: in vivo.
Data set [4] relates to primary human hepatocytes or human iPSC-derived hepatocytes. Nature of the data set: Hepatic clearance in monolayer culture. Format: in vitro ADME. Conditions: 2D culture; in most cases primary cells exhibited greater clearance.
For data set [5] the test system is unchanged. Conditions: as previously reported; ref Sakolish et al. 2021; cited from earlier work.
Data set [6] can be described thus: Plasma protein binding / plasma free fraction. It counts as in vitro ADME. Particulars: human.
For data set [7], the system named is microphysiological system. Conditions: ref Marin et al. (2019); cited from earlier work.

Values joined by “and” are separate entries in the source; they are usually repeats but may differ in a detail not shown here. Equal entries are not always repeated. Where two headings read alike, the source gives them in different places. Some results are limits rather than exact numbers.

In the case of `Cn1c(=O)c2c(ncn2C)n(C)c1=O` [Caffeine], in data set [1] (10-day experimental period, all four model systems (2D and 3D, primary and iPSC-derived hepatocytes)), the “in vitro intrinsic clearance as a function of time” value is listed as “decline in clearance was also observed”. Besides, the “underprediction of clearance by LAMPS compared to in vivo” value in [1] is reported as below 5 fold. Also, the plasma free fraction in the data set on plasma protein (equilibrium dialysis, ref Lelo et al. 1986) was 0.68. Also, the “plasma free fraction, previously reported measurement” value in the data set with plasma protein is on record as 0.515. In the data set with plasma protein (summary of Table 1 values), the “Plasma protein binding, % free” value is above 50 % free. The oral clearance in data set [2] (human, ref Lelo et al. 1986) is 2.07 mL/min/kg. Also, the Hepatocyte metabolism result in the data set with Hepatocyte is “CYPA2, xanthine oxidase, or N-acetyltransferase 2”. Moreover, the “oral clearance converted using 70 kg body weight” value in data set [3] (human, from ref Lelo et al. 1986) came out at 8.7 L/h.
Turning to `CCc1ccc(CCOc2ccc(CC3SC(=O)NC3=O)cc2)nc1` (stereo not shown) [Pioglitazone], the “underprediction of clearance by LAMPS compared to in vivo” value in data set [1] is listed as below 5 fold. For the same molecule, the plasma free fraction in the data set with plasma protein (ref Eckland and Danhof 2000) is recorded as below 0.03. In the data set on plasma protein, the “plasma free fraction, previously reported measurement” value is on record as 0.0441 and the “Fub, plasma” value is 0.008-0.04. Moreover, the estimated clearance in data set [2] ("wild type" individuals) was 2.12 L/h. Moreover, the estimated clearance in data set [2] (CYP2C8*3 carrier) was 3.21 L/h. For the same molecule, the oral clearance in [2] (human, ref Eckland and Danhof 2000) is 0.633 mL/min/kg and 0.882 mL/min/kg and 0.797 mL/min/kg. Besides, the absorption in [2] (ref Eckland and Danhof 2000) is reported as 83%. Also, in data set [2] (repeat dose, ref Budde et al. 2003), the “daily AUC” value is recorded as 14,565 ug-hr/l. In data set [2] (single dose of 45 mg, ref Budde et al. 2003), the AUC is recorded as 17,387 ug-hr/l. Further, the Hepatocyte metabolism result in the data set with Hepatocyte is “CYP2C8, CYP3A4, and conjugation with sulfate or glucuronic acid”. Moreover, the “mean oral clearance of available literature values” in data set [3] (human, oral) worked out at 3.02 L/h. The “mean oral clearance adjusted for absorption” value in [3] (human, oral, mean of all available values, adjusted for incomplete absorption) was found to be 2.51 L/h. The “oral clearance converted using 70 kg body weight” value in [3] (human, from ref Eckland and Danhof 2000) was 2.66 L/h and 3.7 L/h and 3.35 L/h.
Turning to `CN(CCOc1ccc(CC2SC(=O)NC2=O)cc1)c1ccccn1` (stereo not shown) [Rosiglitazone], the free fraction with plasma protein (by ultrafiltration, ref Chapelsky et al. 2003) is on record as 0.0016. In the data set with plasma protein, the “plasma free fraction, previously reported measurement” value was 0.0038. For the same molecule, in the data set on plasma protein, the “Fub, plasma” value is on record as 0.0016-0.036. Further, the oral clearance in data set [2] (human, ref Chapelsky et al. 2003) was 3.07 L/h. For the same molecule, the AUC in data set [2] (i.v. dose of 2 mg, ref Cox et al. 2000) is 744 ng·h/mL; in [2] (oral dose of 8 mg, ref Cox et al. 2000) it was 2,900 ng-hr/ml and 2,930 ng-hr/ml. For the same molecule, the “parent compound in feces” value in data set [2] (radioactivity detected in feces, ref Cox et al. 2000) is on record as “no parent compound was detected”. Besides, in the data set with Hepatocyte, the Hepatocyte metabolism result was “CYP2C8, CYP2C9, N-demethylation, and conjugation with sulfate or glucuronic acid”. The molecule also registered a bioavailability in [3] (human, oral, 8 mg) of 98%. For the same molecule, the “mean oral clearance of available literature values” in [3] (human, oral) amounted to 2.85 L/h.
As to `CC(C)(C)c1ccc(C(O)CCCN2CCC(C(O)(c3ccccc3)c3ccccc3)CC2)cc1` (stereo not shown) [Terfenadine], the free fraction in the data set with plasma protein (by ultrafiltration, ref Awni et al. 1997) was 0.003; with plasma protein (source cited was a review, ref McTavish et al. 1990), 0.03. Moreover, the “plasma free fraction, previously reported measurement” value with plasma protein is listed as 0.0219. Besides, the “Fub, plasma” value in the data set with plasma protein is on record as 0.003-0.022. The AUC was 24.6 ng·h/mL in data set [2] (60 mg dose, ref Bergstrom et al. 1997) and 20.14 ng·h/mL in data set [2] (120 mg dose, ref Stern et al. 1998).
For the molecule `Cc1ccc(C(=O)c2cc(O)c(O)c([N+](=O)[O-])c2)cc1` [Tolcapone], the “clearance in primary cells versus iPSC-derived hepatocytes” value in data set [4] is reported as “the opposite was true”. In the data set on plasma protein (no source cited, ref Jorga et al. 1998), the unbound fraction was below 0.001. Also, the bound with plasma protein (ref Jorga et al. 1998) is above 99.9%. Moreover, in the data set with plasma protein, the “plasma free fraction, previously reported measurement” value was 0.002 and the “Fub, plasma” value is on record as <0.001-0.029. Further, in [2] (ref Jorga et al. 1998), the i.v. clearance is 7.1 L/h and the oral clearance was 11.43 L/h. Further, the “toxicity indicated by lactate dehydrogenase (LDH) and TNF-alpha release” value in data set [5] is “most toxic”. The Hepatocyte metabolism entry with Hepatocyte is listed as “Conjugation with glucuronic acid”. The “CL/F adjusted for oral absorption” value in [3] (11.43*0.68, from ref Jorga et al. 1998) was 7.8 L/h. The bioavailability in data set [3] (human, oral) was determined as 62%.
`Cc1c(C)c2c(c(C)c1O)CCC(C)(COc1ccc(CC3SC(=O)NC3=O)cc1)O2` (stereo not shown) [Troglitazone]: the fraction unbound in data set [6] came to 0.017. In addition, the mean unbound fraction with plasma protein (by ultrafiltration, non-detects (one-third of subjects) not included, ref Ott et al. 1998) is given as 0.026. Also, in the data set on plasma protein, the “plasma free fraction, previously reported measurement” value is listed as 0.008. Moreover, the “Fub, plasma” value in the data set with plasma protein was 0.0009-0.017. Also, the AUC in data set [2] (oral dose of 400 mg, ref Ott et al. 1998) was 7300 ng·h/mL. Moreover, the oral clearance in data set [2] (ref Loi et al. 1997) is 33.5 L/h; in [2] (three values, ref Loi et al. 1999) it was 30 L/h and 36.1 L/h and 29.8 L/h. For the same molecule, the Hepatocyte metabolism entry in the data set with Hepatocyte was “CYP3A4, and conjugation with sulfate or glucuronic acid”. Also, the “oral clearance converted to” value in [3] (from ref Loi et al. 1997) is 33.5 L/h; in [3] (from ref Loi et al. 1999), 29.8 L/h and 30 L/h and 36 L/h. In addition, the “mean oral clearance of available literature values” in data set [3] (human, oral) stood at 36.8 L/h.
`N[C@@H]1[C@H]2CN(c3nc4c(cc3F)c(=O)c(C(=O)O)cn4-c3ccc(F)cc3F)C[C@@H]12` [Trovafloxacin]: the “free fraction in serum” value with plasma protein (by equilibrium dialysis, ref Teng et al. 1995, Teng et al. 1996) was 0.3 and 0.238. Moreover, the area under the curve (AUC) is 22000 ng·h/mL in data set [2] (iv, 200 mg equivalent, ref Vincent et al. 1998) and 32200 ng·h/mL in data set [2] (oral, 200 mg equivalent, ref Vincent et al. 1998). Further, in data set [5], the “toxicity indicated by lactate dehydrogenase (LDH) and TNF-alpha release” value is “most toxic”. Further, in the data set on Hepatocyte, the Hepatocyte metabolism entry was “N-Acetylation, and conjugation with glucuronic acid”. Also, the bioavailability in data set [3] (human, oral, 200 mg equivalent) was above 100%.
Regarding `CC(=O)Nc1ccc(O)cc1` [acetaminophen], the “half-life in the microphysiological system as compared to in vivo” value in data set [7] is on record as 6 fold.

For orientation: AUC means concentration integrated over time. For orientation: bioavailability means dose-corrected exposure relative to a reference, in per cent. Broadly, the fraction unbound is the share of the substance not bound to proteins or other matrix. Read a low fraction unbound as little free substance.
